What was measured:
[1] = test system: interleukin-6 (IL-6) secretion by LX2 cells; test: Olink Inflammation immunoassay of LX2 supernatants: IL-6; assay type: cell-based, human; settings: for amount of secreted IL-6 after combined treatment with TGF-β1: 10 μM + 5 ng/ml TGF-β1, LX2 cells
Protocol: The human hepatic stellate cell line LX2 was purchased from Merck. The cells were used up to passage ten and incubated under sterile conditions at 37° C. and 5% CO2. The cells were cultivated in medium containing Dulbecco's Modified Eagle's Medium with 4.5 g/l glucose (ThermoFisher), 4 mmol/l glutamine (ThermoFisher), 2% fetal bovine serum (FBS) (Merck), 100 U/ml penicillin and 100 μg/ml streptomycin (Merck). After 2 days, LX2 cells were starved for FBS for 24 h and then pretreated with 10 μM HK1 (Taros Chemicals GmbH & Co. KG) or 10 μM HK3 (Taros Chemicals GmbH & Co. KG) for 30 min. Subsequently, 5 ng/ml recombinant TGF-β1 (R&D Systems, Minneapolis, MN, USA) was added to the hepatic stellate cell cultures for 24 h. LX2 cells were also incubated with 5 ng/ml TGF-β1 alone as positive control for the hepatic stellate cell activation. Recombinant TGF-β1 was dissolved in sterile 4 mmol/l HCl (Merck) containing 0.1% bovine serum albumin (Roth Karlsruhe, Germany) as carrier protein. HK1 and HK3 were dissolved in sterile dimethyl sulfoxide (DMSO) (Sigma-Aldrich, Munich, Germany). Stimulations with 10 μM HK1, 10 μM HK3 and the corresponding vehicles (HCl and DMSO with or without HCl) alone for 24 h were also included as treatments.
LX2 cells were cultured and treated as described in Example 1. After the incubation time, the supernatants of LX2 cells were collected, centrifuged for 10 min at 2000×g at 4° C. and transferred to new tubes to measure 92 proteins in the cell culture supernatants simultaneously using the Olink Inflammation multiplex immunoassay (Olink proteomics, Uppsala, Sweden). This panel covers 92 proteins, including pro- and anti-inflammatory cytokines, growth factors, chemokines and factors involved in biological processes such as apoptosis, inflammatory and immune response, cell adhesion, chemotaxis, or fibrosis. This protein quantification method is based on a proximity extension assay technology, which combines a dual-recognition immunoassay using two matched antibodies labelled with DNA oligonucleotides, with a polymerase chain reaction (PCR) amplification and a microfluidic quantitative real-time PCR as readout. The biomarker concentrations are given as normalized protein expression (NPX) values, which were generated from the threshold cycle values from the qPCR, and represent an arbitrary unit on a log 2 scale.
Differences were analysed by one-way ANOVA followed by the Tukey method as correction for multiple testing.

[2] = test system: caspase 3/7 activity in primary human hepatocytes; test: Caspase 3/7 activity provoked by palmitate in primary human hepatocytes; assay type: cell-based; settings: Hepatocyte, 10 μM pre-treatment + palmitate 200 μM, read-out: caspase 3/7 activity, % of control
Protocol: The potential protective effect of HK1 and HK3 on caspase 3/7 activity in HepG2 cells and primary human hepatocytes was analysed.
HepG2 cells were obtained from Merck (Darmstadt, Germany) (ECACC-certified), while primary human hepatocytes were obtained from Thermo Fisher Scientific (Waltham, MA, USA), and all were cultured according to the instructions of the respective manufacturers. During experiments, cells were cultured in serum-free medium. Unless otherwise stated, cells were treated with 200 μM bovine serum albumin (BSA)-conjugated palmitate (Cayman Chemicals, Ann Arbor, MI) alone or in combination with 10 μM HK1 (Taros Chemicals GmbH & Co. KG, Dortmund, Germany) and HK3 (Taros Chemicals GmbH & Co. KG, Dortmund, Germany) 30 min prior to palmitate exposure for 24 hours. The vehicle BSA was used according to the palmitate concentration and DMSO according to HK1 and HK3 concentration. 2 μM Staurosporine (Abcam, Cambridge, GB) was used as a positive and 100 μM Caspase 3/7 inhibitor (CI) (Cayman Chemicals) as a negative control.
Differences were analysed by one-way ANOVA.

[3] = test system: 3D primary human hepatocyte (PHH) spheroid NASH model; test: Viability (ATP, CellTiter-Glo) of 3D PHH:NPC spheroids; assay type: cell-based; settings: 0.1 μM to 10 μM, up to 2 weeks
Protocol: Experiments were conducted using HepaPredict's (HepaPredict AB, Sweden) 3D primary human hepatocyte (PHH) spheroid NASH model (e.g. as published in Bell et al. Sci Rep. 2016 May 4; 6:25187. doi: 10.1038/srep25187).
Cryopreserved primary human hepatocytes were obtained from BioIVT (USA) and nonparenchymal cells (NPC) from LifeNetHealth (USA). After thawing, PHH-NPC cocultures were seeded in a multi-well 96-well Elplasia plate (Corning) in William's E medium containing 11 mM glucose, 10 μg/mL (control) or 10 mg/mL insulin (NASH), 100 nM dexamethasone, 5.5 mg/L transferrin, 6.7 μg/L selenite, 2 mM L-glutamine, 1 U/mL penicillin, 0.1 mg/mL streptomycin, and 10% fetal bovine serum (FBS). […]
After spheroid formation, cells were exposed to up to five different concentrations of the candidate molecules HK1 or HK3 (0.1 μM, 0.3 μM, 1 μM, 3 μM, and 10 μM) with or without FFA in the culture medium. […] All endpoints were evaluated after 14 days of exposure. […]
Viability was evaluated by ATP quantification using the CellTiter-Glo Luminescent Cell Viability Assay (Promega) according to the manufacturer's instructions. […] Subsequently, luminescence signals were measured using a SpectraMax iD5 multi-mode microplate reader (Molecular Devices). Viability was evaluated after up to two weeks of exposure and values are plotted as relative to vehicle (DMSO) controls with or without FFA. […]

SMILES	amount of secreted IL-6 after combined treatment with TGF-β1 [1]	activity at 10 µM [2]	viability of the spheroids (ATP) relative to vehicle (DMSO) [3]	attenuation of protein content of IL-6 compared to TGF-treated LX2 cells ([1]; 10 μM + 5 ng/ml TGF-β1)
Cc1cc(NC(=S)/C(C#N)=C(\O)C2CC2)ccc1[N+](=O)[O-] [HK3, 2-Cyano-3-cyclopropyl-3-hydroxy-N-(3-methyl-4-nitro-phenyl)-thioacrylamide]	downregulated	41.7%	did not affect	
Cc1cc(NC(=S)/C(C#N)=C(\O)C2CC2)ccc1F [HK1, 2-Cyano-3-cyclopropyl-N-(4-fluoro-3-methyl-phenyl)-3-hydroxy-thioacrylamide]	downregulated	85.6%	did not affect	59%

Source: US20260191815A1, “THIOACRYLAMIDE DERIVATIVES FOR USE IN THE PREVENTION OR TREATMENT OF LIVER FIBROSIS” (CMR CUREDIAB METABOLIC RESEARCH GMBH, priority 2022, published 2026)
